Laboratory results as given in the supplement of paper PMC7840683.
± gives the standard deviation of the averaged measurements.

System: HepaRG
Test: LDH release cytotoxicity, % of total lysis control; higher = more cytotoxic
Conditions: 48 h
Summary of the method: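 Single-lot HepaRG cells in collagen I-coated 96-well plates were treated for 48 h in serum-free induction medium containing 0.5% DMSO with test chemicals in eight-point half-log series up to 100 µM. For total lysis, wells received 0.1% Triton X. LDH in 50 µL spent medium was assayed by resorufin fluorescence with CytoTox-ONE. Percent cytotoxicity was normalized to the on-plate vehicle and total lysis controls, with duplicates averaged.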

Row | SMILES | LDH release cytotoxicity (0.03162 µM) [%] | LDH release cytotoxicity (0.1 µM) [%] | LDH release cytotoxicity (0.3162278 µM) [%] | LDH release cytotoxicity (1 µM) [%] | LDH release cytotoxicity (3.16228 µM) [%] | LDH release cytotoxicity (10 µM) [%] | LDH release cytotoxicity (31.6228 µM) [%] | LDH release cytotoxicity (100 µM) [%] | other results
1 | CC(=O)c1ccc2c(c1)C(NC(=O)c1ccc(F)cc1)C(O)C(C)(C)O2 (centres undefined) [Carabersat] | – | – | – | – | – | – | – | – | LDH release cytotoxicity (0.0308322 µM): -0.845 ± 0.35%; LDH release cytotoxicity (0.0975 µM): -1.53 ± 0.47%; LDH release cytotoxicity (0.308322 µM): -2.26 ± 1.3%; LDH release cytotoxicity (0.975 µM): -2.21 ± 0.25%; LDH release cytotoxicity (3.0832207 µM): -1.81 ± 0.28%; LDH release cytotoxicity (9.75 µM): -1.6 ± 0.32%; LDH release cytotoxicity (30.832207 µM): -1.02 ± 0.098%; LDH release cytotoxicity (97.5 µM): 0.388 ± 0.96%
2 | COP(=O)(OC)OC(C)=CC(=O)N(C)C [Dicrotophos] | -2.01 ± 0.28 | -1.23 ± 0.051 | -1.47 ± 0.12 | -2.46 ± 0.19 | -1.22 ± 0.6 | -0.345 ± 0.14 | 1.7 ± 0.058 | -0.538 ± 0.6 | –
3 | CC1CC2C3CCC4=CC(=O)C=CC4(C)C3(F)C(O)CC2(C)C1(O)C(=O)COP(=O)(O)O (centres undefined) [Dexamethasone sodium phosphate] | -1.41 ± 1.1 | -1.19 ± 0.21 | -0.881 ± 0.18 | -1.653 ± 0.0034 | -1.03 ± 0.27 | -1.06 ± 0.61 | -0.535 ± 0.093 | -0.295 ± 0.86 | –
4 | CC(=NC#N)N(C)Cc1ccc(Cl)nc1 [Acetamiprid] | -2.01 ± 1.8 | -2.67 ± 0.84 | -2.61 ± 0.31 | -2.64 ± 0.13 | -2.01 ± 0.025 | -2.44 ± 1.2 | -2.262 ± 0.022 | 0.254 ± 0.19 | –
5 | c1cc2c3c(cccc3c1)CC2 [Acenaphthene] | -0.325 ± 0.66 | -0.376 ± 0.039 | 0.475 ± 0.27 | -0.576 ± 0.93 | -0.0334 ± 0.48 | 0.635 ± 0.44 | 0.885 ± 1.1 | 1.86 ± 0.3 | –
6 | C=CCOC(=O)C(C)(C)OC(=O)c1cc(-n2c(=O)cc(C(F)(F)F)n(C)c2=O)ccc1Cl [Butafenacil] | – | – | – | – | – | – | – | – | LDH release cytotoxicity (0.0317809 µM): -1.79 ± 0.12%; LDH release cytotoxicity (0.1005 µM): -0.9 ± 0.18%; LDH release cytotoxicity (0.317809 µM): -0.684 ± 1.3%; LDH release cytotoxicity (1.005 µM): -2.04 ± 0.66%; LDH release cytotoxicity (3.17809 µM): -1.27 ± 0.17%; LDH release cytotoxicity (10.05 µM): -0.764 ± 0.69%; LDH release cytotoxicity (31.7809 µM): -0.16 ± 0.57%; LDH release cytotoxicity (100.5 µM): 1.19 ± 0.75%
7 | Cc1cc(O)ccc1Cl [4-Chloro-3-methylphenol] | -0.825 ± 1.3 | -0.387 ± 0.92 | -0.309 ± 1.2 | -0.443 ± 0.47 | 0.57 ± 0.19 | 0.611 ± 0.11 | 0.786 ± 0.33 | 2.48 ± 0.35 | –
8 | CCCCCCC(CCCCCCCCCCC(=O)OCC(COC(C)=O)OC(C)=O)OC(C)=O (centres undefined) [Grinstad Soft-N-Safe] | – | – | – | – | – | – | – | – | LDH release cytotoxicity (0.015811 µM): -1.88 ± 0.51%; LDH release cytotoxicity (0.05 µM): -1.59 ± 1.3%; LDH release cytotoxicity (0.158114 µM): -1.52 ± 1.4%; LDH release cytotoxicity (0.5 µM): -1.93 ± 1.6%; LDH release cytotoxicity (1.58114 µM): -2.07 ± 1.3%; LDH release cytotoxicity (5 µM): -1.64 ± 1.7%; LDH release cytotoxicity (15.8114 µM): -0.943 ± 1.3%; LDH release cytotoxicity (50 µM): 1.04 ± 1.8%
9 | ClC1=C(Cl)C2(Cl)C3C4CC(C5OC45)C3C1(Cl)C2(Cl)Cl (centres undefined) [Endrin] | -0.958 ± 0.053 | -0.149 ± 0.18 | -0.591 ± 0.61 | -0.635 ± 0.031 | -0.591 ± 0.57 | -0.724 ± 0.2 | 0.152 ± 0.33 | 6.26 ± 0.25 | –
10 | CC(C)CCCCCCOC(=O)C1CCCCC1C(=O)OCCCCCCC(C)C (centres undefined) [Diisononyl cyclohexane-1,2-dicarboxylate] | -0.786 ± 0.8 | -0.599 ± 0.29 | -1.09 ± 0.054 | -0.000557 ± 0.59 | -0.402 ± 0.22 | 0.246 ± 0.61 | -0.258 ± 0.077 | 1.07 ± 0.34 | –
11 | Cc1cccc([N+](=O)[O-])c1 [3-Nitrotoluene] | – | – | – | – | – | – | – | – | LDH release cytotoxicity (0.0324133 µM): -0.599 ± 0.21%; LDH release cytotoxicity (0.1025 µM): -1.561 ± 0.014%; LDH release cytotoxicity (0.324134 µM): -1.45 ± 0.26%; LDH release cytotoxicity (1.025 µM): -0.805 ± 0.87%; LDH release cytotoxicity (3.24133 µM): -1.27 ± 0.12%; LDH release cytotoxicity (10.25 µM): -0.551 ± 0.69%; LDH release cytotoxicity (32.4133 µM): -0.321 ± 0.16%; LDH release cytotoxicity (102.5 µM): 0.844 ± 1.1%
12 | N#Cc1nn(-c2c(Cl)cc(C(F)(F)F)cc2Cl)c(N)c1S(=O)C(F)(F)F (centres undefined) [Fipronil] | – | – | – | – | – | – | – | – | LDH release cytotoxicity (0.0317809 µM): -1.15 ± 1.5%; LDH release cytotoxicity (0.1005 µM): -0.938 ± 0.22%; LDH release cytotoxicity (0.317809 µM): -1.37 ± 0.65%; LDH release cytotoxicity (1.005 µM): -2.05 ± 0.55%; LDH release cytotoxicity (3.17809 µM): -1.97 ± 1.1%; LDH release cytotoxicity (10.05 µM): -1.68 ± 0.5%; LDH release cytotoxicity (31.7809 µM): 19.3 ± 1.7%; LDH release cytotoxicity (100.5 µM): 59.8 ± 2%
13 | CC1(C)C(=O)N(Br)C(=O)N1Br [1,3-Dibromo-5,5-dimethylhydantoin] | -0.925 ± 1.3 | -0.284 ± 1.3 | -0.732 ± 0.032 | -1.11 ± 0.88 | -0.698 ± 0.06 | 0.338 ± 1.5 | -0.0587 ± 0.89 | 0.735 ± 0.36 | –
14 | CCC(C)Nc1c([N+](=O)[O-])cc(C(C)(C)C)cc1[N+](=O)[O-] (centres undefined) [Butralin] | – | -2.37 ± 1.2 | – | -1.89 ± 1.2 | -2.08 ± 0.85 | -2.15 ± 1.1 | -1.93 ± 1.3 | -1.58 ± 0.34 | LDH release cytotoxicity (0.031623 µM): -1.24 ± 0.48%; LDH release cytotoxicity (0.316228 µM): -1.26 ± 1%
15 | CN(C)c1ccc(C(=C2C=CC(=[N+](C)C)C=C2)c2ccc(N(C)C)cc2)cc1 [Gentian Violet] | -1.62 ± 0.081 | -2.46 ± 0.081 | -1.86 ± 0.074 | -1.96 ± 0.38 | 6.76 ± 0.71 | 29.8 ± 0.12 | 51.8 ± 0.8 | 54.6 ± 3.8 | –
16 | c1ccc2c(c1)oc1ccccc12 [Dibenzofuran] | -0.992 ± 0.24 | -1.07 ± 0.44 | -1.34 ± 0.76 | -1.2 ± 0.83 | -1.19 ± 1 | -0.829 ± 0.93 | -0.8185 ± 0.0015 | 1.45 ± 0.45 | –
17 | CCOC(=O)C(Cl)Cc1cc(-n2nc(C)n(C(F)F)c2=O)c(F)cc1Cl (centres undefined) [Carfentrazone-ethyl] | -0.276 ± 0.32 | -1.32 ± 0.6 | -0.782 ± 0.36 | -0.573 ± 0.12 | -0.524 ± 0.13 | -0.0179 ± 0.2 | -0.285 ± 0.48 | 1.22 ± 0.5 | –
18 | OCC(O)CO [Glycerol] | -1.51 ± 0.67 | -1.11 ± 0.27 | -1.56 ± 0.12 | -1.79 ± 0.27 | -1.43 ± 0.14 | -1.14 ± 0.37 | -0.926 ± 0.83 | -0.545 ± 0.22 | –
